# Reference: ChEMBL document CHEMBL4340556, “Novel benzothiazole hydrazine carboxamide hybrid scaffolds as potential in vitro GABA AT enzyme inhibitors: Synthesis, molecular docking and antiepileptic evaluation” (Bioorg Med Chem Lett, 2019)
# Activity calls are given as the source filed them. The rule behind the calls is not given here.
# What was measured:
# [1] = Neurotoxicity in ip dosed albino mouse assessed as motor impairment measured at 0.5 hrs by rotarod test; format: toxicity, organism-based; conditions: in vivo
# Mus musculus [2] = test: Anticonvulsant activity in ip dosed albino mouse model of maximal electroshock-induced seizures assessed as prevention of tonic hind limb extension pretreated for 0.5 hrs followed by 50 mA current-induction for 0.25 secs; format: functional
# Mus musculus [3] = test: Anticonvulsant activity in ip dosed albino mouse model of subcutaneous pentylenetetrazole-induced seizure assessed as failure to observe even a single episode of clonic spasms for at least 5 secs pretreated for 0.5 hrs followed by pentylenetetrazole induction; format: functional
# Mus musculus [4] = test: Anticonvulsant activity in ip dosed albino mouse model of subcutaneous pentylenetetrazole-induced seizure assessed as failure to observe even a single episode of clonic spasms for at least 5 secs pretreated for 4 hrs followed by pentylenetetrazole induction; format: functional
# [5] = Neurotoxicity in ip dosed albino mouse assessed as motor impairment measured at 4 hrs by rotarod test; format: toxicity, organism-based; conditions: in vivo
# Mus musculus [6] = test: Anticonvulsant activity in ip dosed albino mouse model of maximal electroshock-induced seizures assessed as prevention of tonic hind limb extension pretreated for 4 hrs followed by 50 mA current-induction for 0.25 secs; format: functional
# [7] = target: 4-aminobutyrate aminotransferase, mitochondrial (Mus musculus, UniProt P61922); test: Inhibition of GABA aminotransferase in mouse brain homogenates using GABA and alpha-ketoglutarate as substrates preincubated for 30 mins followed by beta-NADP addition and measured for 20 mins by spectrophotometric method; format: tissue-based
# Sequence of 4-aminobutyrate aminotransferase, mitochondrial (P61922 whole entry): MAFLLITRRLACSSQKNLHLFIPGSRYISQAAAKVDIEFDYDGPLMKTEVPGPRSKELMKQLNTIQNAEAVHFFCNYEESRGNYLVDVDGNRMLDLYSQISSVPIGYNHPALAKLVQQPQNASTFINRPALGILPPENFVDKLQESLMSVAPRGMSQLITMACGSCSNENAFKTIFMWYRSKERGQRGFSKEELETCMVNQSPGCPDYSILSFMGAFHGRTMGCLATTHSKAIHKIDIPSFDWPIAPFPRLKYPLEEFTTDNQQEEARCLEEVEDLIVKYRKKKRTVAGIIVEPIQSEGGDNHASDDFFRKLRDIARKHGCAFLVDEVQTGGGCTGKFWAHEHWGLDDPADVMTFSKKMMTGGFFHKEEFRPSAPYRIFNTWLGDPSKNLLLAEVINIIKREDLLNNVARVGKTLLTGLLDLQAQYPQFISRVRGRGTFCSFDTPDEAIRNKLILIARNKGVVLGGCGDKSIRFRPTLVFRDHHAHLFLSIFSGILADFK
# [8] = Hepatotoxicity in albino mouse assessed as decrease in serum SGOT level at 30 mg/kg, po administered daily for one month measured post-last dose; format: toxicity, organism-based; conditions: in vivo
# [9] = Hepatotoxicity in albino mouse assessed as increase in serum serum alkaline phosphatase level at 30 mg/kg, po administered daily for one month measured post-last dose; format: toxicity, organism-based; conditions: in vivo
# [10] = Hepatotoxicity in albino mouse assessed as increase in serum SGPT level at 30 mg/kg, po administered daily for one month measured post-last dose; format: toxicity, organism-based; conditions: in vivo
# Mus musculus [11] = test: Anticonvulsant activity in po dosed albino mouse brain assessed as increase in brain GABA level administered for 7 days by TLC analysis; format: functional
# [12] = Hepatotoxicity in albino mouse assessed as appearance of normal hepatocyte with clearing of cytoplasm at 30 mg/kg, po administered daily for one month measured post-last dose by histopathological analysis; format: toxicity, organism-based; conditions: in vivo
# [13] = Hepatotoxicity in albino mouse assessed as decrease in serum alkaline phosphatase level at 30 mg/kg, po administered daily for one month measured post-last dose; format: toxicity, organism-based; conditions: in vivo
# [14] = Hepatotoxicity in albino mouse assessed as decrease in serum SGPT level at 30 mg/kg, po administered daily for one month measured post-last dose; format: toxicity, organism-based; conditions: in vivo
Structure (SMILES),MED=>50 [1],MED=>50 (Mus musculus [2]),MED=>50 (Mus musculus [3]),MED=>50 (Mus musculus [4]),MED=>50 [5],MED=>50 (Mus musculus [6]),IC50 [7] [µM],Activity [8],Activity [9],Activity [10],fold change (FC) (Mus musculus [11]),Activity [12],Activity [13],Activity [14]
Cc1ccccc1C1SCC(=O)N1NC(=O)Nc1nc2ccc(Cl)cc2s1 (stereo not drawn),300 mg/kg,300 mg/kg,inactive,inactive,300 mg/kg,300 mg/kg,,,,,,,,
CCCC(CCC)C(=O)O [VALPROIC ACID],Non-Toxic,inactive,300 mg/kg,inactive,Non-Toxic,inactive,,,,,,,,
C=CC(N)CCC(=O)O (stereo not drawn) [VIGABATRIN],,,,,,,39.7,,,,,,,
O=C1NC(=O)C(c2ccccc2)(c2ccccc2)N1 [PHENYTOIN],100 mg/kg,30 mg/kg,inactive,inactive,100 mg/kg,30 mg/kg,,,,,,,,
O=C(Nc1nc2ccc(Cl)cc2s1)NN1C(=O)CSC1c1ccc([N+](=O)[O-])cc1 (stereo not drawn),Non-Toxic,30 mg/kg,100 mg/kg,100 mg/kg,Non-Toxic,100 mg/kg,58.1,Toxic,Toxic,Toxic,,,,
COc1ccc(C2C(Cl)C(=O)N2NC(=O)Nc2nc3ccc(Cl)cc3s2)cc1 (stereo not drawn),Non-Toxic,300 mg/kg,inactive,inactive,Non-Toxic,300 mg/kg,,,,,,,,
NC(=O)N1c2ccccc2C=Cc2ccccc21 [CARBAMAZEPINE],100 mg/kg,30 mg/kg,100 mg/kg,100 mg/kg,300 mg/kg,100 mg/kg,,,,,,,,
O=C(Nc1nc2ccc(Cl)cc2s1)NN1C(=O)CSC1c1ccccc1Cl (stereo not drawn),Non-Toxic,100 mg/kg,300 mg/kg,300 mg/kg,Non-Toxic,100 mg/kg,,,,,,,,
O=C(Nc1nc2ccc(Cl)cc2s1)NN1C(=O)CSC1c1ccccc1 (stereo not drawn),Non-Toxic,300 mg/kg,300 mg/kg,300 mg/kg,Non-Toxic,300 mg/kg,,,,,,,,
Cc1ccccc1C1C(Cl)C(=O)N1NC(=O)Nc1nc2ccc(Cl)cc2s1 (stereo not drawn),300 mg/kg,300 mg/kg,inactive,inactive,300 mg/kg,300 mg/kg,,,,,,,,
COc1ccc(C2SCC(=O)N2NC(=O)Nc2nc3ccc(Cl)cc3s2)cc1 (stereo not drawn),Non-Toxic,300 mg/kg,inactive,inactive,Non-Toxic,inactive,,,,,,,,
CC(=O)Oc1ccccc1C1C(Cl)C(=O)N1NC(=O)Nc1nc2ccc(Cl)cc2s1 (stereo not drawn),Non-Toxic,300 mg/kg,inactive,inactive,Non-Toxic,300 mg/kg,,,,,,,,
O=C(Nc1nc2ccc(Cl)cc2s1)NN1C(=O)C(Cl)C1c1ccccc1 (stereo not drawn),Non-Toxic,300 mg/kg,inactive,inactive,Non-Toxic,300 mg/kg,,,,,,,,
O=C(Nc1nc2ccc(Cl)cc2s1)NN1C(=O)CSC1c1ccc(Cl)cc1Cl (stereo not drawn),Non-Toxic,30 mg/kg,100 mg/kg,100 mg/kg,Non-Toxic,100 mg/kg,15.3,Toxic,,,1.5,Non-Toxic,Toxic,Toxic
CCC1(C)CC(=O)NC1=O (stereo not drawn) [ETHOSUXIMIDE],Non-Toxic,inactive,300 mg/kg,inactive,Non-Toxic,inactive,,,,,,,,
O=C(Nc1nc2ccc(Cl)cc2s1)NN1C(=O)C(Cl)C1c1ccc(Cl)cc1Cl (stereo not drawn),Non-Toxic,30 mg/kg,100 mg/kg,100 mg/kg,Non-Toxic,100 mg/kg,51.4,Toxic,Toxic,Toxic,,,,
O=C(Nc1nc2ccc(Cl)cc2s1)NN1C(=O)C(Cl)C1c1ccc([N+](=O)[O-])cc1 (stereo not drawn),Non-Toxic,100 mg/kg,300 mg/kg,300 mg/kg,Non-Toxic,100 mg/kg,,,,,,,,
CC(=O)Oc1ccccc1C1SCC(=O)N1NC(=O)Nc1nc2ccc(Cl)cc2s1 (stereo not drawn),Non-Toxic,300 mg/kg,inactive,inactive,Non-Toxic,300 mg/kg,,,,,,,,
O=C(Nc1nc2ccc(Cl)cc2s1)NN1C(=O)C(Cl)C1c1ccccc1Cl (stereo not drawn),Non-Toxic,300 mg/kg,inactive,inactive,Non-Toxic,300 mg/kg,,,,,,,,
